Laboratory results from ChEMBL document CHEMBL1135188, “Synthesis and anti-tumor activity of novel combretastatins: combretocyclopentenones and related analogues” (Bioorg Med Chem Lett, 2002).
In brackets after ≈: the same amount, converted by molar mass.

Legend:
A-431 = experiment: Cytotoxicity expressed as inhibitory concentration required to reduce the cell growth of A431 human epidermal carcinoma cell line; format: functional, cell-based
HCT-116 = experiment: Cytotoxicity expressed as inhibitory concentration required to reduce the cell growth of HCT116 human colon carcinoma cell line; format: functional, cell-based
B16 = experiment: Cytotoxicity expressed as inhibitory concentration required to reduce the cell growth of B16 murine melanoma cell line; format: functional, cell-based; conditions: Mus musculus
[1] = Inhibition ratio expressed as percentage showing significant anti-tumor activity in BDF1 mice bearing Lewis lung carcinoma cells was determined; format: functional

COc1ccc(C2=C(c3cc(OC)c(OC)c(OC)c3)C(=O)CC2)cc1
IC50 (A-431): 0.021 µg/mL (≈ 0.0593 µM) | IC50 (HCT-116): 0.021 µg/mL (≈ 0.0593 µM) | IC50 (B16): 0.015 µg/mL (≈ 0.0423 µM)

COc1cc(C2=C(c3ccc4ccccc4c3)CCC2=O)cc(OC)c1OC
IC50 (A-431): 0.034 µg/mL (≈ 0.0908 µM) | IC50 (HCT-116): 0.031 µg/mL (≈ 0.0828 µM) | IC50 (B16): 0.029 µg/mL (≈ 0.0774 µM)

COc1ccc(C2=C(c3cc(OC)c(OC)c(OC)c3)CCC2)cc1
IC50 (HCT-116): > 1 µg/mL | IC50 (B16): > 1 µg/mL

COc1ccc(C2=C(c3cc(OC)c(OC)c(OC)c3)C(=O)CC2)cc1O
IC50 (A-431): 0.009 µg/mL (≈ 0.0243 µM) | IC50 (HCT-116): 0.012 µg/mL (≈ 0.0324 µM) | IC50 (B16): 0.013 µg/mL (≈ 0.0351 µM)

COc1ccc(C2=C(c3cc(OC)c(OC)c(OC)c3)C(O)CC2)cc1 (configuration not stated)
IC50 (HCT-116): 0.045 µg/mL (≈ 0.126 µM) | IC50 (B16): 0.039 µg/mL (≈ 0.109 µM)

COc1cccc2c1C(=O)c1c(O)c3c(c(O)c1C2=O)C[C@@](O)(C(=O)CO)C[C@@H]3O[C@H]1C[C@H](N)[C@H](O)[C@H](C)O1 [DOXORUBICIN]
IC50 (A-431): 0.117 µg/mL (≈ 0.215 µM)

COc1ccc(C2=C(c3cc(OC)c(OC)c(OC)c3)COC2)cc1
IC50 (HCT-116): > 1 µg/mL | IC50 (B16): > 1 µg/mL

COc1ccc(C2=C(c3cc(OC)c(OC)c(OC)c3)C(=O)CC2)cc1N
IC50 (A-431): 0.009 µg/mL (≈ 0.0244 µM) | IC50 (HCT-116): 0.008 µg/mL (≈ 0.0217 µM) | IC50 (B16): 0.008 µg/mL (≈ 0.0217 µM) | Ratio [1]: 59

COc1ccc(C2=C(c3cc(OC)c(OC)c(OC)c3)C(=O)C=C2)cc1
IC50 (HCT-116): 0.013 µg/mL (≈ 0.0369 µM) | IC50 (B16): 0.011 µg/mL (≈ 0.0312 µM)
